Source: patent US5712367A, “Process for the solubilization of peptides and process for peptide synthesis” (Rhone-Poulenc Chimie, priority 1989, dated 1998)

Legend:
Type in all cases: physicochemical
[1] = Partition coefficient of N-tert-butyloxycarbonylpentaglycine esters between CH2Cl2 and H2O
[2] = Solubility of N-tert-butyloxycarbonylpentaglycine esters (CH3)3COCO(NHCH2CO)5OR in anisole, CH2Cl2 and H2O; conditions: for Solubility in g/100 cm^3 CH2 Cl2: solvent CH2Cl2; for Solubility in g/100 cm^3 H2 O: solvent H2O; for Solubility in g/100 cm^3 anisole: solvent anisole
[3] = Measurement of the solubilities of the molecules of formula (L)-seryl-A--L in water; conditions: measured in the filtrate after grinding in water for 15 minutes
Method: Ammonia gas was passed into this solution at room temperature. The ammonium chloride precipitate obtained was rapidly filtered off. […] The product obtained after concentration was immediately ground in water for 15 minutes at room temperature and then filtered off.
The solubility of the product of formula (L)-seryl-A--L was measured in the filtrate.

Partition coefficient between CH2 Cl2 and H2 O [1]	Solubility in g/100 cm^3 CH2 Cl2 [2]	Solubility in g/100 cm^3 H2 O [2]	Solubility in g/100 cm^3 anisole [2]	solubility in water at 25° C. [3]	SMILES
> 1,000	> 10 g/100 cm^3	0.0016 g/100 cm^3	5 g/100 cm^3	–	CC(C)(C)OC(=O)NCC(=O)NCC(=O)NCC(=O)NCC(=O)NCC(=O)OCc1cccc(C(=O)OCc2ccc(-c3ccccc3)cc2)c1 [Example R1]
4.1	0.070 g/100 cm^3	0.017 g/100 cm^3	insoluble	–	CC(C)(C)OC(=O)NCC(=O)NCC(=O)NCC(=O)NCC(=O)NCC(=O)OCc1ccccc1 [benzyl]
> 2,000	> 10 g/100 cm^3	0.0008 g/100 cm^3	5 g/100 cm^3	–	CC(C)(C)OC(=O)NCC(=O)NCC(=O)NCC(=O)NCC(=O)NCC(=O)OCc1cccc(C(=O)OCc2cccc(Oc3ccccc3)c2)c1 [Example R2]
–	–	–	–	> 100 mg/mL	N[C@@H](CO)C(=O)OCc1ccccc1 [L-Serine benzyl ester]
0.66	0.33 g/100 cm^3	0.50 g/100 cm^3	insoluble	–	COC(=O)CNC(=O)CNC(=O)CNC(=O)CNC(=O)CNC(=O)OC(C)(C)C [CH3]
